# Patent US20100324017A1, “ACYLGUANIDINE DERIVATIVE” (priority 2007, published 2010)
# Counter-ions that a name gives are not always drawn.
# Target: T1, human 5-HT5A receptor (Homo sapiens, UniProt P47898)
# T1 construct: expressed in transfected cells; membrane preparation
# Experiment: Test of human 5-HT5A receptor binding inhibition ([3H]5-CT, HEK293 cell membrane)
# Details: [3H]5-CT binding, membrane of HEK293 cell expressing human 5-HT5A receptor
# Protocol: An ORF of a human 5-HT5A receptor (Genbank AF498985) was cloned from a human hippocampal cDNA library, and then inserted into a pCR2.1 vector (Invitrogen), and Escherichia coli having the plasmid was mass cultured. Next, the human 5-HT5A receptor full-length cDNA sequence was analyzed, recombined into a pCDNA3.1 vector (Invitrogen) as an expression vector, and mass cultured. A human embryonic kidney-induced cell HEK293 cell (ATCC) was seeded, and the resulting expression plasmid (1 μg) above was added thereto together with LIPOFECTAMINE 2000 (Invitrogen; 2 μl), a gene was introduced into the HEK293 cell, and then Geneticin (G418 sulfate 500 μg/ml; Kanto Chemical Co., Inc.) was used as a drug-resistant marker to screen the expressing cell. Thus prepared gene-expressing recombinant cell was cultured in a D-MEM, 10% FCS, 1% Pc./Sm., 500 μg/ml G418 culture medium for 3 days. This experimental operation was conducted in accordance with a gene operation experiment manual of a known method (Sambrook, J. et al, Molecular Cloning-A Laboratory Manual“, Cold Spring Harabor Laboratory, NY, 1989), etc., an instruction appended in a reagent or the like.
# (1) Preparation of a Membrane from an HEK293 Cell Forcibly Expressing a Human 5-HT5A Receptor
# An HEK293 cell forcibly expressing a human 5-HT5A receptor was cultured in an F500 plate, and scraped for collection using a scraper. After centrifugation, the precipitates were collected and an incubation buffer (50 mM Tris (HCl) PH 7.4, 10 mM Mg504, 0.5 mM EDTA) was added thereto. After homogenization, it was further centrifuged, an incubation buffer was added to the precipitate, and the mixture was well suspended. These operations were repeatedly conducted, the protein concentration was then measured, and the preparation of a membrane was completed.
# (2) Experiment on Human 5-HT5A Receptor Binding Inhibition
# The compound to be tested (0.3 to 300 nM) and a 100 μM 5-CT solution in DMSO were added to a 96-well plate at 2 μl/well. The number of the wells to be measured under the same condition in one experiment was set at 2, and an average value thereof was used. It was suspended in an incubation buffer, and a HEK293 cell membrane forcibly expressing a human 5-HT5A receptor that had been prepared at 200 μg/ml was added thereto at 100 μl/well. The mixture was incubated at room temperature for 15 minutes, and a [^3H]5-CT solution (2 nM [^3H]5-CT, an incubation buffer) was then added thereto at 100 μl/well.
# Separate from this, 100 μl of the solution was dispersed to a liquid scintillation vial, 2 ml of Aquasol II (registered trademark) was added thereto, followed by stirring, and the radioactivity was then measured with a liquid scintillation counter. The solution was incubated at 37° C. for 60 minutes. The reaction liquid was sucked to a 96-well GF/C filter plate that had been preliminarily treated with 0.2% polyethyleneimine, and washed six times with an ice-cooled 50 mM Tris (pH 7.5) buffer. The GF/C filter plate was dried.
# MicroscintTMPS (registered trademark) was added thereto at 40 μl/well. The radioactivity remaining on the GF/C filter plate was measured in a top counter.
# For the inhibitory activity for the binding of the [^3H]5-CT by the compound to be tested in each experiment, IC50 value was calculated by taking the radioactivity when only DMSO was added as 0% inhibition, and the radioactivity when 1 μM 5-CT was added as 100% inhibition. Apart from this, a Ki value was calculated from the Kd value of the [^3H]5-CT that had been determined by Scatchard analysis.
# Ki=IC50 (1+Concentration of the ligands added/Kd (4.95 nM))
# T1 sequence (P47898 whole entry): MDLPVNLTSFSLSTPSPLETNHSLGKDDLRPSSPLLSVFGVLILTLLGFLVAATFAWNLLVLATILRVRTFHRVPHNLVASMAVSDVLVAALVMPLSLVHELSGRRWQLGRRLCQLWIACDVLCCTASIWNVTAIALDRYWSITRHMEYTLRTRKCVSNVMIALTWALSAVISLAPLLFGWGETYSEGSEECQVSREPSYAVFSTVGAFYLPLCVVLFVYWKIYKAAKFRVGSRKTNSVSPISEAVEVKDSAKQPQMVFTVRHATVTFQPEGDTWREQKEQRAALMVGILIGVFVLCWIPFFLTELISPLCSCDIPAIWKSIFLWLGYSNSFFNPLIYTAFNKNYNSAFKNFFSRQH
row,Ki [nM],Compound
1,≤ 50,N#CCN1CCC(n2c3ccccc3c3ccc(C(=O)N=C(N)N)cc32)CC1 [Example 191]
2,≤ 50,COCCN/C(N)=N/C(=O)c1ccc2c3ccccc3n(Cc3cccs3)c2c1 [Example 210]
3,≤ 50,COc1ccc(CN/C(N)=N/C(=O)c2ccc3c4ccccc4n(C4CCOCC4)c3c2)cc1 [Example 193]
4,≤ 50,Cc1ccsc1Cn1c2ccccc2c2ccc(C(=O)N=C(N)N)cc21 [Example 177]
5,≤ 50,N/C(=N\C(=O)c1ccc2c3ccccc3n(C3CCOCC3)c2c1)NCc1ccco1 [Example 179]
6,≤ 50,N/C(=N\C(=O)c1ccc2c3ccccc3n(C3CCOCC3)c2c1)NCC1CCCCC1 [Example 204]
7,≤ 50,Cc1cc(C(=O)N=C(N)N)cc2c1c1c(F)cccc1n2C1CCOCC1 [Example 138]
8,≤ 50,COCCCN/C(N)=N/C(=O)c1ccc2c3ccccc3n(C3CCOCC3)c2c1 [Example 162]
9,≤ 50,Cc1cccc2c1c1ccc(C(=O)N=C(N)N)cc1n2C1CC=C(F)CC1 (stereo not drawn) [Example 161]
10,≤ 50,NC(N)=NC(=O)c1ccc2c3ccccc3n(C3CCOCC3)c2c1 [Example 144]
11,8.3,NC(N)=NC(=O)c1ccc2c3ccccc3n(Cc3ccccc3)c2c1 [Example 37]
12,≤ 50,"NC(N)=NC(=O)c1cc(F)c2c3ccccc3n(C3CCOCC3)c2c1 [Example 11, N-(diaminomethylene)-4-fluoro-9-(tetrahydro-2H-pyran-4-yl)-9H-carbazole-2-carboxamide hydrochloride]"
13,≤ 50,NC(N)=NC(=O)c1ccc2c3ccccc3n(C3CCC3)c2c1 [Example 22]
14,≤ 50,N/C(=N\C(=O)c1ccc2c3ccccc3n(C3CCOCC3)c2c1)NC1CCOCC1 [Example 182]
15,≤ 50,NC(N)=NC(=O)C1CCc2c(n(-c3ccccc3)c3ccccc23)C1 (stereo not drawn) [Example 220]
16,≤ 50,N/C(=N\C(=O)c1ccc2c3ccccc3n(C3CCOCC3)c2c1)NC1CC1 [Example 164]
17,≤ 50,NC(N)=NC(=O)c1ccc2c3ccccc3n(C3CCC(F)(F)CC3)c2c1 [Example 129]
18,4.5,CC(C)S(=O)(=O)n1c2ccccc2c2ccc(C(=O)N=C(N)N)cc21 [Example 28]
19,≤ 50,N/C(=N\C(=O)c1ccc2c3ccccc3n(C3CCOCC3)c2c1)Nc1ccccc1 [Example 181]
20,≤ 50,NC(N)=NC(=O)c1ccc2c3ccccc3n([C@@H]3CCNC3)c2c1 [Example 175]
21,≤ 50,NC(N)=NC(=O)c1ccc2c3ccccc3n(C3CCN(c4ccccc4)CC3)c2c1 [Example 198]
22,≤ 50,COc1ccccc1CN/C(N)=N/C(=O)c1ccc2c3ccccc3n(C3CCOCC3)c2c1 [Example 195]
23,0.66,CC(C)C(=O)n1c2ccccc2c2ccc(C(=O)N=C(N)N)cc21 [Example 27]
24,≤ 50,NC(N)=NC(=O)c1ccc2c3ccccc3n(C(CF)CF)c2c1 [Example 160]
25,≤ 50,NC(N)=NC(=O)c1ccc2c3ccccc3n(Cc3ccc(F)s3)c2c1 [Example 116]

row,Ki [nM],Compound
1,0.69,"CC(C)n1c2ccccc2c2ccc(C(=O)N=C(N)N)cc21 [Example 1, N-(diaminomethylene)-9-isopropyl-9H-carbazole-2-carboxamide]"
2,≤ 50,N/C(=N\C(=O)c1ccc2c3ccccc3n(C3CCOCC3)c2c1)NCc1cccs1 [Example 180]
3,≤ 50,Cc1cccc2c1c1c(F)cc(C(=O)N=C(N)N)cc1n2C1CCOCC1 [Example 145]
4,≤ 50,N/C(=N\C(=O)c1ccc2c3ccccc3n(C3CCOCC3)c2c1)NCC1CCCC1 [Example 205]
5,≤ 50,NC(N)=NC(=O)c1ccc2c3ccc(F)cc3n(C3CCOCC3)c2c1 [Example 114]
6,≤ 50,CO[C@H]1CC[C@@H](n2c3ccccc3c3ccc(C(=O)N=C(N)N)cc32)CC1 [Example 148]
7,1.6,N/C(=N\C(=O)c1ccc2c3ccccc3n(C3CCOCC3)c2c1)NCc1ccccc1 [Example 159]
8,≤ 50,N/C(=N/C(=O)c1ccc2c3ccccc3n(C3CCOCC3)c2c1)NCCO [Example 126]
9,≤ 50,N/C(=N\C(=O)c1ccc2c3ccccc3n(C3CCOCC3)c2c1)NCCc1ccccc1 [Example 196]
10,≤ 50,Cc1cc(Cn2c3ccccc3c3ccc(C(=O)N=C(N)N)cc32)no1 [Example 141]
11,≤ 50,NC(N)=NC(=O)c1ccc2c3c(F)ccc(F)c3n(C3CCOCC3)c2c1 [Example 140]
12,2.8,"NC(N)=NC(=O)c1ccc2c(c1)[nH]c1ccccc12 [Example 2, N-(diaminomethylene)-9H-carbazole-2-carboxamide]"
13,≤ 50,CC(C)N/C(N)=N\C(=O)c1ccc2c3ccccc3n(C3CCOCC3)c2c1 [Example 149]
14,≤ 50,COc1cccc(OC)c1CNC(N)=NC(=O)c1ccc2c3ccccc3n(C3CCOCC3)c2c1 [Example 212]
15,≤ 50,NC(N)=NC(=O)c1ccc2c3c(Cl)cccc3n(C3CCOCC3)c2c1 [Example 115]
16,≤ 50,CSc1cccc2c1c1ccc(C(=O)N=C(N)N)cc1n2C1CCOCC1 [Example 147]
17,≤ 50,CC(C)n1c2cc(C(=O)N=C(N)N)ccc2c2c(O)cccc21 [Example 152]
18,2.2,CN/C(N)=N/C(=O)c1ccc2c3ccccc3n(C3CCOCC3)c2c1 [Example 120]
19,≤ 50,NC(N)=NC(=O)c1ccc2c3ccccc3n([C@H]3CC[C@@H](F)CC3)c2c1 [Example 143]
20,≤ 50,N/C(=N\C(=O)c1ccc2c3ccccc3n(C3CCOCC3)c2c1)NCC1COCCO1 (stereo not drawn) [Example 186]
21,≤ 50,N/C(=N\C(=O)c1ccc2c3ccccc3n(C3CCOCC3)c2c1)NC[C@@H]1CCCO1 [Example 187]
22,≤ 50,N/C(=N\C(=O)c1ccc2c3ccccc3n(C3CCOCC3)c2c1)NC[C@H]1CCCO1 [Example 188]
23,≤ 50,N/C(=N\C(=O)c1ccc2c3ccccc3n(C3CCOCC3)c2c1)NCC1CCOCC1 [Example 206]
24,5.3,NC(N)=NC(=O)c1ccc2c3ccccc3n(-c3ccccn3)c2c1 [Example 102]

# Test system: MK-801-induced overactivity
# Experiment: MK-801-induced overactivity in mice, kinetic momentum by infrared sensor
# Format: in vivo
# Details: mouse, oral, dose 0.01 mg/kg; MK-801 0.3 mg/kg i.p.; total 60 minutes, P<0.05
# Protocol: Evaluation of Various Drugs Relative to a Drug for Increasing the Kinetic Momentum of Mice (Methane Phetamine, MK-801) (Method for Measuring a Kinetic Momentum by Discharge of an Infrared Ray)
# The effect of improving the positive symptoms and the negative symptoms of schizophrenia by the compound (I) was evaluated by measuring the kinetic momentum that had been […] with administration of the compound in a model causing the symptoms by methane phetamine (which is hereinafter simply referred to as MAP) and MK-801.
# Species: Male ICR mouse/number of animals (number of animals per group): 8 to 12 animals per group
# The animal was left in a laboratory for 1 hour or longer to be acclimated to the environment, and the animal was taken from the feeding cage, orally administered with a compound to be tested, and then returned to the feeding cage. After 30 minutes, it was put into a cage for measurement, and the kinetic momentum of just the compound to be tested was measured. Further, after 30 minutes, the animal was taken out, and intraperitoneally administered with a drug for increasing kinetic momentum (MAP; 1 mg/kg or MK-801; 0.3 mg/kg, all dissolved in physiological saline), and its kinetic momentum was measured for a certain time (60 minutes) using a device for measuring the kinetic momentum by means of an infrared ray sensor (CompACT AMS, Muromachi Kikai Co., Ltd.). Also, the test was carried out under non-fasting.
# The 60 minutes of measurements was classified into three groups: a first half 30 minutes, a second half 30 minutes, and a total 60 minutes. For a normal mouse (a mouse administered with physiological saline) and a mouse administered with the drug for increasing kinetic momentum, a Student's T test was used for evaluation in each interval. For the group administered with the compound to be tested, a solvent (vehicle) group and a Dunnett's T test were carried out and evaluated. For the evaluation, in case where there was a significant (P<0.05) difference for the total 60 minutes, it was considered to be effective.
row,Compound,inhibition of MK-801-induced overactivity
1,Cc1cc(C(=O)N=C(N)N)cc2c1c1c(F)cccc1n2C1CCOCC1 [Example 138],significantly inhibited
2,NC(N)=NC(=O)c1ccc2c3ccccc3n(Cc3ccccc3)c2c1 [Example 37],significantly inhibited

# Same assay, conditions: mouse, oral, dose 0.1 mg/kg; MK-801 0.3 mg/kg i.p.
row,Compound,inhibition of MK-801-induced overactivity
1,Cc1cccc2c1c1ccc(C(=O)N=C(N)N)cc1n2C1CC=C(F)CC1 (stereo not drawn) [Example 161],significantly inhibited
2,NC(N)=NC(=O)c1ccc2c3ccccc3n(C3CCC3)c2c1 [Example 22],significantly inhibited
3,NC(N)=NC(=O)c1ccc2c3ccccc3n(C3CCC(F)(F)CC3)c2c1 [Example 129],significantly inhibited
